Like-named read-outs stand apart in the source and are kept apart here.
What was measured:
[1] = SD rat; for Radioactive distribution per unit weight, Adrenal gland, Average / Radioactive distribution per unit weight, Blood, Average / Radioactive distribution per unit weight, Bone, Average / Radioactive distribution per unit weight, Brain, Average / Radioactive distribution per unit weight, Heart, Average / Radioactive distribution per unit weight, Kidney, Average / Radioactive distribution per unit weight, Large intestine, Average / Radioactive distribution per unit weight, Liver, Average / Radioactive distribution per unit weight, Lung, Average / Radioactive distribution per unit weight, Marrow, Average / Radioactive distribution per unit weight, Muscle, Average / Radioactive distribution per unit weight, Pancreas, Average / Radioactive distribution per unit weight, Small intestine, Average / Radioactive distribution per unit weight, Spleen, Average / Radioactive distribution per unit weight, Stomach, Average: tail vein
Method: A solution of Compound 6 in diethylether was diluted with a 10 mg/mL ascorbic acid-containing physiological saline solution and adjusted to 8-12 MBq/mL in radioactive concentration. 0.2 mL each of the prepared sample solution was administered under non-anesthesia into the tail vein of the above rat. The rats were sacrificed by bleeding from abdominal artery, and each organ shown in Table 11 was removed 5, 30, 60 and 180 minutes after the administration. […] Also, radioactivity of the whole body of the rat after removal of the organs (hereinafter referred to as rest of the whole body) was measured. Using these measurement results, radioactive distribution per unit weight of each organ (% ID/g) at the respective time points was calculated in accordance with the following formula (6).
Three animals were used for the experiment at the respective time points.
[formula] • R^T: Radioactivity of target organ (cpm) • R^S: Sum of radioactivity of all the organs (cpm) • R^R: Radioactivity of the rest of the whole body (cpm) • M^T: Mass of target organ (g)

insulin amyloid = insulin amyloid (Homo sapiens, UniProt P01308); conditions: insulin amyloid 0.8 μg/mL, compound 0.2-20.2 pM, 22° C., 3 hours (FIG. 16)
Source text: (§1) Affinity of the present compounds with amyloid was examined by the following in vitro binding tests.

amylin amyloid = amylin amyloid (Homo sapiens, UniProt P10997); conditions: amylin amyloid 0.8 μg/mL, compound 0.2-20.2 pM, 22° C., 3 hours (FIG. 16)
Source text: as §1

[2] = molecular target: β2-m-amyloid (aggregated β2-microglobulin) (Homo sapiens, UniProt P61769); conditions: β2-m-amyloid 0.8 μg/mL, compound 0.2-20.2 pM, 22° C., 3 hours (FIG. 16)
Source text: as §1

[3] = Transferability into brain and clearance (Example I-16, Comparative Example I-7); type: in vivo, male Wistar rats; conditions: rats, intravenous injection, two animals
Method: Using Compound 6, a time course change of radioactive accumulation in brain of male Wistar rats (7-week old) was measured.
Also, radioactivity (hereinafter referred to as B in this Example) of 0.05 mL of a 1000-fold diluted solution of the injected solution was measured in the same manner as above. Using these measurement results, radioactive accumulation per unit weight of brain (% ID/g) at the respective time points was calculated in accordance with the following formula (3).

[4] = molecular target: intracerebral amyloid (aggregated Aβ1-40 injected into amygdaloid nucleus) (Homo sapiens, UniProt P05067); conditions: rat with Aβ1-40 amyloid suspension in one amygdaloid nucleus, tail vein, brain removed 60 minutes after injection
Method: The following experiment was carried out in order to examine whether amyloid in brain can be imaged by the compound of the present invention.
The rats were examined 1 day after the injection of the amyloid suspension and the phosphate buffered physiological saline solution (pH 7.4).
(4) Brain was removed 60 minutes after the injection to prepare a brain slice of 10 μm in thickness with a microtome (type: CM3050S, manufactured by LEICA).

Sequence of insulin amyloid (P01308 25-54 limits assumed): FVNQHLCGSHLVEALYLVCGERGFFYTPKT
Sequence of insulin amyloid (P01308 90-110 limits assumed): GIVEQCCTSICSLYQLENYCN
Sequence of amylin amyloid (P10997 34-70 limits assumed): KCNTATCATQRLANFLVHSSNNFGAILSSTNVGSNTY
Sequence of intracerebral amyloid (aggregated Aβ1-40 injected into amygdaloid nucleus) (P05067 672-711): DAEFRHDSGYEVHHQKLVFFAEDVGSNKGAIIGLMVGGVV

- Ratio (% ID/g at 5 minutes after the administration)/(% ID/g at 180 minutes after the administration) ([1]; bone): 4
- Ratio (% ID/g at 5 minutes after the administration)/(% ID/g at 180 minutes after the administration) ([1]; brain): 122
- Ratio (% ID/g at 5 minutes after the administration)/(% ID/g at 180 minutes after the administration) ([1]; heart): 13
- Ratio (% ID/g at 5 minutes after the administration)/(% ID/g at 180 minutes after the administration) ([1]; lung): 7
- Ratio (% ID/g at 5 minutes after the administration)/(% ID/g at 180 minutes after the administration) ([1]; pancreas): 14
- Radioactive distribution per unit weight, Adrenal gland, Average ([1]; 5 min. after administration): 4.648 % ID/g
- Radioactive distribution per unit weight, Adrenal gland, Average ([1]; 30 min. after administration): 0.642 % ID/g
- Radioactive distribution per unit weight, Adrenal gland, Average ([1]; 60 min. after administration): 0.260 % ID/g
- Radioactive distribution per unit weight, Adrenal gland, Average ([1]; 180 min. after administration): 0.020 % ID/g
- Radioactive distribution per unit weight, Blood, Average ([1]; 5 min. after administration): 0.285 % ID/g
- Radioactive distribution per unit weight, Blood, Average ([1]; 30 min. after administration): 0.174 % ID/g
- Radioactive distribution per unit weight, Blood, Average ([1]; 60 min. after administration): 0.122 % ID/g
- Radioactive distribution per unit weight, Blood, Average ([1]; 180 min. after administration): 0.109 % ID/g
- Radioactive distribution per unit weight, Bone, Average ([1]; 5 min. after administration): 0.222 % ID/g
- Radioactive distribution per unit weight, Bone, Average ([1]; 30 min. after administration): 0.088 % ID/g
- Radioactive distribution per unit weight, Bone, Average ([1]; 60 min. after administration): 0.058 % ID/g
- Radioactive distribution per unit weight, Bone, Average ([1]; 180 min. after administration): 0.053 % ID/g
- Radioactive distribution per unit weight, Brain, Average ([1]; 5 min. after administration): 0.721 % ID/g
- Radioactive distribution per unit weight, Brain, Average ([1]; 30 min. after administration): 0.124 % ID/g
- Radioactive distribution per unit weight, Brain, Average ([1]; 60 min. after administration): 0.030 % ID/g
- Radioactive distribution per unit weight, Brain, Average ([1]; 180 min. after administration): 0.006 % ID/g
- Radioactive distribution per unit weight, Heart, Average ([1]; 5 min. after administration): 0.619 % ID/g
- Radioactive distribution per unit weight, Heart, Average ([1]; 30 min. after administration): 0.147 % ID/g
- Radioactive distribution per unit weight, Heart, Average ([1]; 60 min. after administration): 0.063 % ID/g
- Radioactive distribution per unit weight, Heart, Average ([1]; 180 min. after administration): 0.047 % ID/g
- Radioactive distribution per unit weight, Kidney, Average ([1]; 5 min. after administration): 0.999 % ID/g
- Radioactive distribution per unit weight, Kidney, Average ([1]; 30 min. after administration): 0.540 % ID/g
- Radioactive distribution per unit weight, Kidney, Average ([1]; 60 min. after administration): 0.244 % ID/g
- Radioactive distribution per unit weight, Kidney, Average ([1]; 180 min. after administration): 0.108 % ID/g
- Radioactive distribution per unit weight, Large intestine, Average ([1]; 5 min. after administration): 0.116 % ID/g
- Radioactive distribution per unit weight, Large intestine, Average ([1]; 30 min. after administration): 0.070 % ID/g
- Radioactive distribution per unit weight, Large intestine, Average ([1]; 60 min. after administration): 0.066 % ID/g
- Radioactive distribution per unit weight, Large intestine, Average ([1]; 180 min. after administration): 7.296 % ID/g
- Radioactive distribution per unit weight, Liver, Average ([1]; 5 min. after administration): 2.008 % ID/g
- Radioactive distribution per unit weight, Liver, Average ([1]; 30 min. after administration): 0.509 % ID/g
- Radioactive distribution per unit weight, Liver, Average ([1]; 60 min. after administration): 0.181 % ID/g
- Radioactive distribution per unit weight, Liver, Average ([1]; 180 min. after administration): 0.083 % ID/g
- Radioactive distribution per unit weight, Lung, Average ([1]; 5 min. after administration): 0.657 % ID/g
- Radioactive distribution per unit weight, Lung, Average ([1]; 30 min. after administration): 0.209 % ID/g
- Radioactive distribution per unit weight, Lung, Average ([1]; 60 min. after administration): 0.120 % ID/g
- Radioactive distribution per unit weight, Lung, Average ([1]; 180 min. after administration): 0.089 % ID/g
- Radioactive distribution per unit weight, Marrow, Average ([1]; 5 min. after administration): 0.713 % ID/g
- Radioactive distribution per unit weight, Marrow, Average ([1]; 30 min. after administration): 0.194 % ID/g
- Radioactive distribution per unit weight, Marrow, Average ([1]; 60 min. after administration): 0.000 % ID/g
- Radioactive distribution per unit weight, Marrow, Average ([1]; 180 min. after administration): 0.030 % ID/g
- Radioactive distribution per unit weight, Muscle, Average ([1]; 5 min. after administration): 0.381 % ID/g
- Radioactive distribution per unit weight, Muscle, Average ([1]; 30 min. after administration): 0.078 % ID/g
- Radioactive distribution per unit weight, Muscle, Average ([1]; 60 min. after administration): 0.034 % ID/g
- Radioactive distribution per unit weight, Muscle, Average ([1]; 180 min. after administration): 0.022 % ID/g
- Radioactive distribution per unit weight, Pancreas, Average ([1]; 5 min. after administration): 0.846 % ID/g
- Radioactive distribution per unit weight, Pancreas, Average ([1]; 30 min. after administration): 0.207 % ID/g
- Radioactive distribution per unit weight, Pancreas, Average ([1]; 60 min. after administration): 0.084 % ID/g
- Radioactive distribution per unit weight, Pancreas, Average ([1]; 180 min. after administration): 0.060 % ID/g
- Radioactive distribution per unit weight, Small intestine, Average ([1]; 5 min. after administration): 1.078 % ID/g
- Radioactive distribution per unit weight, Small intestine, Average ([1]; 30 min. after administration): 6.335 % ID/g
- Radioactive distribution per unit weight, Small intestine, Average ([1]; 60 min. after administration): 8.207 % ID/g
- Radioactive distribution per unit weight, Small intestine, Average ([1]; 180 min. after administration): 1.408 % ID/g
- Radioactive distribution per unit weight, Spleen, Average ([1]; 5 min. after administration): 0.462 % ID/g
- Radioactive distribution per unit weight, Spleen, Average ([1]; 30 min. after administration): 0.140 % ID/g
- Radioactive distribution per unit weight, Spleen, Average ([1]; 60 min. after administration): 0.075 % ID/g
- Radioactive distribution per unit weight, Spleen, Average ([1]; 180 min. after administration): 0.072 % ID/g
- Radioactive distribution per unit weight, Stomach, Average ([1]; 5 min. after administration): 0.360 % ID/g
- Radioactive distribution per unit weight, Stomach, Average ([1]; 30 min. after administration): 1.025 % ID/g
- Radioactive distribution per unit weight, Stomach, Average ([1]; 60 min. after administration): 1.043 % ID/g
- Radioactive distribution per unit weight, Stomach, Average ([1]; 180 min. after administration): 1.081 % ID/g
- Radioactive accumulation in brain per unit weight ([3]; after 2 min.): 0.96 % ID/g
- Radioactive accumulation in brain per unit weight ([3]; after 5 min.): 0.69 % ID/g
- Radioactive accumulation in brain per unit weight ([3]; after 30 min.): 0.16 % ID/g
- Radioactive accumulation in brain per unit weight ([3]; after 60 min.): 0.04 % ID/g
- Accumulation of radioactivity at intracerebral amyloid (autoradiogram) [4]: accumulating on intracerebral amyloid
Structure (SMILES): Oc1ccc(-c2cn3cc([123I])ccc3n2)cc1 [Compound 6, [^123I]-2-(4′-hydroxyphenyl)-6-iodoimidazo[1,2-a]pyridine]
- Radioactive count on glass fiber filter versus group without addition of amyloid (insulin amyloid): radioactivity was all high compared to the group without addition of amyloid suspension
- Radioactive count on glass fiber filter versus group without addition of amyloid (amylin amyloid): radioactivity was all high compared to the group without addition of amyloid suspension
- Radioactive count on glass fiber filter versus group without addition of amyloid [2]: radioactivity was all high compared to the group without addition of amyloid suspension

Reference: patent US20100249408A1, “USE OF NOVEL COMPOUND HAVING AFFINITY FOR AMYLOID, AND PROCESS FOR PRODUCTION OF THE SAME” (NIHON MEDI-PHYSICS CO., LTD., priority 2007, published 2010)
